Experimental data from paper PMC11189516, “Structure-guided conversion from an anaplastic lymphoma kinase inhibitor into Plasmodium lysyl-tRNA synthetase selective inhibitors” (Communications Biology, 2024).
Several values for one entry are separate records, joined by “and”; a condition that tells them apart may be missing. Equal values may be shown once.

Assays:
[1] = target: T1, PfLysRS (Plasmodium falciparum, UniProt Q8IDJ8); test: Thermal shift assay; format: binding; conditions: for ΔTm of PfLysRS / ΔTm at 200 µM: in the presence of L-lysine
T1 construct: PfLysRS (77–583) was constructed in the vector pET20b, with a C-terminal 6×His tag; 6xHis (C); made in house; host or cells: E. coli BL21 (DE3)
Procedure: PfLysRS protein was prepared at 10 μM concentration in a buffer containing 20 mM Tris pH 8.0, 200 mM NaCl, 500 μM L-lysine, and 200 μM Compound. Aliquots (18 µL) were added to a 96-well PCR plate and incubated at ambient temperature for 10 min. SYPRO Orange dye (Sigma) was diluted in the assay buffer containing 20 mM Tris pH 8.0 and 200 mM NaCl to a 40× concentration, and 2 µL of the 40× dye solution was added to the PCR plate to bring the final assay volume to 20 µL. After complete mixing, the final solutions were heated from 25 to 90 °C at a rate of 0.015 °C per sec, and fluorescence signals were monitored by QuantStudio 3 (Applied Biosystems by Thermo Fisher Scientific).

[2] = test system: erythrocytic-stage P. falciparum 3D7 parasites; test: In vitro Plasmodium growth assay; format: cell-based, Plasmodium falciparum; conditions: for HillSlope (best-fit value): Plasmodium falciparum 3D7; for LogIC50 (best-fit value): Plasmodium falciparum 3D7, log of nM; for IC50: Plasmodium falciparum 3D7, source data, read-out: IC50 (best-fit value); for EC50: Plasmodium falciparum, 3D7, 72 h
Procedure: Parasites were cultured in human O+ erythrocytes according to standard procedures. To prepare the >80% ring stage parasites, asynchronous cultures of parasites were pretreated with 5% sorbitol, and P. falciparum strain 3D7 at the mid-ring stage (6–10 h post-invasion) was used to test antimalarial effects in 96-well plates. Parasites were incubated in a 96-well plate with compound containing 1% parasitemia and, 2% hematocrit for a total volume of 200 μL. […] A relevant DMSO concentration was used as a negative control, and cultured erythrocytes without Plasmodium served as a positive control. The parasites were allowed to grow for 72 h at 37 °C with 5% CO2, 5% O2, and 90% N2. After 72 h, 100 μL of lysis buffer (0.12 mg·mL^−1 Saponin, 0.12% Triton X-100, 30 mM Tris-HCl pH 8.0, and 7.5 mM EDTA) with 5× SYBR Green I (Invitrogen; supplied in 10000× concentration) was added to each well of the plate. The plates were then incubated for 2 h in the dark prior to reading the fluorescence signal at 485 nm excitation and 535 nm emission. The percentage of inhibition was calculated by (NC-fluorescence) × 100/(NC-PC).

[3] = target: T1, PfLysRS; test: ATP hydrolysis assay (Kinase-Glo) on PfLysRS; format: biochemical; conditions: read-out: IC50 against PfLysRS
Procedure: (§1) The ATP hydrolysis assays were based on Kinase-Glo luminescent Kit (Promega). The experiment was carried out in Corning 384-well white flat bottom microplates. The buffer in the reaction contains 25 mM Hepes pH 7.4, 140 mM NaCl, 40 mM MgCl2, 30 mM KCl, 1 mM TCEP, 0.1 mg·mL^−1 BSA, and 0.004% Tween-20. The compounds were diluted to different concentrations with a 5-fold gradient.
(§2) For LysRS assays, DMSO was added into negative control wells and L-lysine was removed in positive control wells. 100 nM LysRS in 2.5 μL Hepes buffer was mixed with compounds and incubated for 10 min. Then 5 μL substrate mixture (2 μM ATP, 10 μM L-lysine and 31 nM pyrophosphatase) was added to start the reaction at 37 °C and incubated for 6 h.
(§3) When the reaction reaches the planned time, 10 μL diluted Kinase-Glo reagent (1/50 diluted with a buffer containing 50 mM Tris pH 7.5 and 5% glycerol) was added and incubated for 15 min. Luminescence was measured on the Magellan plate reader (Tecan) and nonlinear regression was performed with Prism (GraphPad).

[4] = target: T2, HsLysRS (Homo sapiens, UniProt Q15046); test: ATP hydrolysis assay (Kinase-Glo) on HsLysRS; format: biochemical; conditions: read-out: IC50 against HsLysRS
T2 construct: HsLysRS (70–581) was constructed in the vector pET20b with a C-terminal 6×His tag; 6xHis (C); made in house; host or cells: E. coli (pET20b; 'purified similarly' to PfLysRS, which was expressed in BL21 (DE3))
Procedure: as §1, §2, §3

[5] = target: T3, ALK (Homo sapiens, UniProt Q9UM73); test: ATP hydrolysis assay (Kinase-Glo) on ALK; format: biochemical; conditions: read-out: IC50 against ALK
T3 construct: The plasmid pCDNA3.1_8×His-tev-ALK (kinase domain, 1068–1410) was constructed; 8xHis (N); TEV site (N); made in house; host or cells: Expi293 cells (transient transfection)
Procedure: as §1
For ALK assays, DMSO was added into negative control wells. 100 nM ALK in 2.5 μL Hepes buffer was mixed with compounds and incubated for 10 min. Then 5 μL substrate (2 μM ATP) was added to start the reaction at 37 °C and incubated for 6 h.
as §3

[6] = P. falciparum 3D7, Log(Concentration)/nM 3.193, single repeats
[7] = P. falciparum 3D7, Log(Concentration)/nM 3.496, single repeats
[8] = P. falciparum 3D7, Log(Concentration)/nM 3.796, single repeats
[9] = P. falciparum 3D7, Log(Concentration)/nM 4.097, single repeats
[10] = P. falciparum 3D7, Log(Concentration)/nM 4.398, single repeats
[11] = P. falciparum 3D7, Log(Concentration)/nM 4.699, single repeats
[12] = P. falciparum 3D7, Log(Concentration)/nM 5.000, single repeats
[13] = +Lysine, sheet Figure 6B, in °C (unit assumed)

T1 sequence (Q8IDJ8 entry or part of it): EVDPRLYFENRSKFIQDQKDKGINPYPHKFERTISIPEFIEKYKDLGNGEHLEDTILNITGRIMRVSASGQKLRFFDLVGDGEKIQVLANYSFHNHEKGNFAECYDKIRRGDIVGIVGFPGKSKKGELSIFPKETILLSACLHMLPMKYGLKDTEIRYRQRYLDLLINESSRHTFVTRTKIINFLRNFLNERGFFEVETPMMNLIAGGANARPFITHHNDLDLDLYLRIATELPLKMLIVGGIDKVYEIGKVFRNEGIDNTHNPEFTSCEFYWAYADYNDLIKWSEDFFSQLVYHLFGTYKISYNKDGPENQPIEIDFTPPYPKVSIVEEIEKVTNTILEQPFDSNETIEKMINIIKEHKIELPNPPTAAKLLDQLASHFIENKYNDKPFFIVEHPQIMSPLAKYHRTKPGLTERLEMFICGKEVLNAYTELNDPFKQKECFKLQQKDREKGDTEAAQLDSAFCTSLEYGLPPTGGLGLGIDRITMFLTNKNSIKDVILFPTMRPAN
T2 sequence (Q15046 70-581): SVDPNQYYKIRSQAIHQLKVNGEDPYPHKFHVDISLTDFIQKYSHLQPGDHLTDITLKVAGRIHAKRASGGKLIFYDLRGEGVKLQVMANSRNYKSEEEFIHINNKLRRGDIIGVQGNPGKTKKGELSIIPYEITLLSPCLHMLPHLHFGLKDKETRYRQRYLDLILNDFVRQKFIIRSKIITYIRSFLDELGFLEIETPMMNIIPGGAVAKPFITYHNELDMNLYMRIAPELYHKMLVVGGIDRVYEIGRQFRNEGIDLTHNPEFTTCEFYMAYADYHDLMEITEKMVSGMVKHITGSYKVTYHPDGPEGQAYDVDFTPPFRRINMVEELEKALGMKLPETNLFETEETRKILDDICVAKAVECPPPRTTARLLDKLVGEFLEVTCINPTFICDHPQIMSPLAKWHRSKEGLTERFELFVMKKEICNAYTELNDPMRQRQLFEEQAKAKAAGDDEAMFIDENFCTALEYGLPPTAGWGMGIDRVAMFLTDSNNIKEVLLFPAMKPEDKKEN
T3 sequence (Q9UM73 1068-1410): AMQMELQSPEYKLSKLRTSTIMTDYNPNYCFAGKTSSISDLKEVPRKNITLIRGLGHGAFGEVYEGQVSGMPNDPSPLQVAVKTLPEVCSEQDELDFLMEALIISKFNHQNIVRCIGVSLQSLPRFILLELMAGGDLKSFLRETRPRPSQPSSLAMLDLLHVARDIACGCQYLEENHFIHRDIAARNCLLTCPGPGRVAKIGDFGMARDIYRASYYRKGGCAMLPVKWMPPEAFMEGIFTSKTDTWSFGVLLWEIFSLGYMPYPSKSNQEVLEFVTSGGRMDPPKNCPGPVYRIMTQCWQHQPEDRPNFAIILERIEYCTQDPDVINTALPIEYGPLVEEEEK

## COc1cc(N2CCC(N3CCN(C)CC3)CC2)ccc1Nc1ncnc(Nc2ccccc2C2C=CCCC2)n1 (centres unmarked) [Compound 31]
[1]
  ΔTm of PfLysRS: 2.0 °C

## COc1cc(N2CCC(N3CCN(C)CC3)CC2)ccc1Nc1ncnc(Nc2ccccc2C2CCCCC2)n1 [Compound 32]
[1]
  ΔTm of PfLysRS: 4.1 °C

## COc1ccc(C(F)(F)F)cc1Nc1ncnc(Nc2ccccc2S(=O)(=O)C(C)C)n1 [Compound 33]
[1]
  ΔTm of PfLysRS: -0.1 °C

## COC(=O)c1ccc(OC)c(Nc2ncnc(Nc3ccccc3S(=O)(=O)C(C)C)n2)c1 [Compound 34]
[1]
  ΔTm at 200 µM: 7.9 °C
[2]; P. falciparum 3D7, Log(Concentration)/nM 2.290, single repeats
  % Inhibition: 1.182% and -0.03693% and -1.145%
[2]; P. falciparum 3D7, Log(Concentration)/nM 2.592, single repeats
  % Inhibition: 1.736% and -0.03693% and 4.616%
[2]; [6]
  % Inhibition: 62.22% and 58.01% and 53.91%
[2]; [7]
  % Inhibition: 92.69% and 87.92% and 85.93%
[2]; [8]
  % Inhibition: 98.34% and 94.68% and 94.24%
[2]; [9]
  % Inhibition: 98.78% and 97.23% and 96.34%
[2]; [10]
  % Inhibition: 101.2% and 100.6% and 98.23%
[2]; [11]
  % Inhibition: 99.67% and 99.22% and 96.9%
[2]; [12]
  % Inhibition: 94.68% and 96.01% and 94.24%
[2]
  HillSlope (best-fit value): 2.802
  LogIC50 (best-fit value): 3.133
  IC50: 1.36 µM
  EC50: 1.36 ± 0.04 µM

## COc1ccc(Nc2ncnc(Nc3ccccc3S(=O)(=O)C(C)C)n2)c(OC)c1 [Compound 35]
[1]
  ΔTm of PfLysRS: 6.4 °C

## COc1ccc(OC)c(Nc2ncnc(Nc3ccccc3S(=O)(=O)CCNC(=O)[C@@H](N)CCCCN)n2)c1 [Compound 36K2]
[1]; [13]
  Tm of PfLysRS, Average: 50.650
  Tm of PfLysRS, single repeat: 50.665 and 50.973 and 50.296
[3]
  IC50: 0.365 µM
[4]
  IC50: 31 µM
[5]
  IC50: > 109 µM

## COc1ccc(OC)c(Nc2ncnc(Nc3ccccc3S(=O)(=O)CCCCCNC(=O)[C@@H](N)CCCCN)n2)c1 [Compound 36K5]
[1]; +Lysine, sheet Figure 6B
  △Tm of PfLysRS: 10.740
[1]; [13]
  Tm of PfLysRS, Average: 55.760
  Tm of PfLysRS, single repeat: 55.867 and 55.929 and 55.806 and 55.437
[3]
  IC50: 2.77 µM
[4]
  IC50: 22 µM
[5]
  IC50: > 66.8 µM

## COc1cnc(OC)c(Nc2ncnc(Nc3ccccc3S(=O)(=O)C(C)C)n2)c1 [Compound 36a]
[1]
  ΔTm at 200 µM: 10.7 °C
[4]
  IC50: 44 µM
[2]; P. falciparum 3D7, Log(Concentration)/nM 2.893, single repeats
  % Inhibition: 14.91%
[2]; [6]
  % Inhibition: 32.52% and 24.14%
[2]; [7]
  % Inhibition: 30.61% and 34.32%
[2]; [8]
  % Inhibition: 39.42% and 74.11%
[2]; [9]
  % Inhibition: 57.98% and 94.48%
[2]; [10]
  % Inhibition: 81.01% and 104.5%
[2]; [11]
  % Inhibition: 93% and 107%
[2]; [12]
  % Inhibition: 88.65% and 105.6%
[2]
  HillSlope (best-fit value): 1.181
  LogIC50 (best-fit value): 3.762
  IC50: 5.78 µM
  EC50: 5.78 ± 1.73 µM

## COc1ccc(OC)c(Nc2cccc(Nc3ccccc3S(=O)(=O)C(C)C)n2)c1 [Compound 36b]
[1]
  ΔTm of PfLysRS: 0.1 °C

## COc1ccc(OC)c(Nc2cncc(Nc3ccccc3S(=O)(=O)C(C)C)n2)c1 [Compound 36c]
[1]
  ΔTm of PfLysRS: 0 °C

## COc1ccc(OC)c(Nc2cccc(Nc3ccccc3S(=O)(=O)C(C)C)c2)c1 [Compound 36d]
[1]
  ΔTm of PfLysRS: −0.2 °C

## COc1ccc(OC)c(Nc2cc(Nc3ccccc3S(=O)(=O)C(C)C)ncn2)c1 [Compound 36e]
[1]
  ΔTm of PfLysRS: 3.1 °C

## COc1ccc(OC)c(Nc2nccc(Nc3ccccc3S(=O)(=O)C(C)C)n2)c1 [Compound 36f]
[1]
  ΔTm of PfLysRS: 2.4 °C

## CC(C)S(=O)(=O)c1ccccc1Nc1ncnc(Nc2ccccc2S(=O)(=O)C(C)C)n1 [Compound 37]
[1]
  ΔTm of PfLysRS: 0.5 °C

## COc1cccnc1Nc1ncnc(Nc2ccccc2S(=O)(=O)C(C)C)n1 [Compound 38b]
[1]; +Lysine
  Tm of PfLysRS, Average: 42.100 °C
  Tm of PfLysRS, single repeat: 42.223 °C and 42.193 °C and 42.039 °C and 41.946 °C
[1]
  ΔTm at 200 µM: 2 °C

## COc1ccc(C)cc1Nc1ncnc(Nc2ccccc2S(=O)(=O)C(C)C)n1 [Compound 39]
[1]
  ΔTm of PfLysRS: 4.1 °C

## COc1ccc([N+](=O)[O-])cc1Nc1ncnc(Nc2ccccc2S(=O)(=O)C(C)C)n1 [Compound 40]
[1]
  ΔTm of PfLysRS: 2.5 °C

## COc1ccc(F)cc1Nc1ncnc(Nc2ccccc2S(=O)(=O)C(C)C)n1 [Compound 41]
[1]
  ΔTm of PfLysRS: 1.9 °C

## COc1ccc(OC(F)(F)F)cc1Nc1ncnc(Nc2ccccc2S(=O)(=O)C(C)C)n1 [Compound 42]
[1]
  ΔTm of PfLysRS: 1.5 °C
